Results published in patent publication US11040987B2 (TenNor Therapeutics Limited, priority 2019, dated 2021).
≈ marks a conversion by molar mass, not a printed value.

How the values were obtained:
Type in all cases: cell-based
A. baumannii ATCC 19606 = assay: MIC determination, broth microdilution, ESKAPE panel; settings: Acinetobacter baumannii, ATCC19606; iron-depleted cation-adjusted Mueller-Hinton broth, 2,2-dipyridyl 160 μM; 37° C., 18-20 hours; read-out: MIC A. baumannii ATCC 19606
Procedure: (§1) Minimum inhibitory concentration (MIC) is determined by a broth microdilution method according to the recommendation of the Clinical and Laboratory Standards Institute (CLSI) with minor modification. […] Strains of an ESKAPE panel (E. faecium ATCC 700221, S. aureus ATCC 29213, K. pneumoniae ATCC 43816, A. baumannii ATCC 19606, P. aeruginosa ATCC 27853 and Escherichia coli ATCC 25922) were obtained originally from the American Type Culture Collection (ATCC) and used for MIC determinations of compounds. The bacteria inoculum in the test is […].

E. faecium ATCC 700221 = assay: as above; settings: Enterococcus faecium, ATCC700221; iron-depleted cation-adjusted Mueller-Hinton broth, 2,2-dipyridyl 160 μM; 37° C., 18-20 hours; read-out: MIC E. faecium ATCC 700221
Procedure: as §1

[1] = system: Escherichia coli ATCC 25922; assay: as above; settings: ATCC25922, iron-depleted cation-adjusted Mueller-Hinton broth, 2,2-dipyridyl 160 μM, 37° C., 18-20 hours, read-out: MIC E. coli ATCC 25922
Procedure: as §1

K. pneumoniae ATCC 43816 = assay: as above; settings: Klebsiella pneumoniae, ATCC43816; iron-depleted cation-adjusted Mueller-Hinton broth, 2,2-dipyridyl 160 μM; 37° C., 18-20 hours; read-out: MIC K. pneumoniae ATCC 43816
Procedure: as §1

P. aeruginosa ATCC 27853 = assay: as above; settings: Pseudomonas aeruginosa, ATCC27853; iron-depleted cation-adjusted Mueller-Hinton broth, 2,2-dipyridyl 160 μM; 37° C., 18-20 hours; read-out: MIC P. aeruginosa ATCC 27853
Procedure: as §1

S. aureus ATCC 29213 = assay: as above; settings: Staphylococcus aureus, ATCC29213; iron-depleted cation-adjusted Mueller-Hinton broth, 2,2-dipyridyl 160 μM; 37° C., 18-20 hours; read-out: MIC S. aureus ATCC 29213
Procedure: as §1

A.b TNP 41704 = assay: MIC against A. baumannii clinical isolates, alone and in combination with antibiotics; settings: for MIC: Acinetobacter baumannii, TNP41704, Compounds alone, read-out: MIC A.b TNP 41704
A.b TNP 41708 = assay: as above; settings: for MIC: Acinetobacter baumannii, TNP41708, read-out: MIC A.b TNP 41708
Procedure: as §1

A.b TNP 41709 = assay: as above; settings: for MIC: Acinetobacter baumannii, TNP41709, Compounds alone, read-out: MIC A.b TNP 41709

SMILES	MIC (A. baumannii ATCC 19606) [µg/mL]	MIC (E. faecium ATCC 700221) [µg/mL]	MIC [1] [µg/mL]	MIC (K. pneumoniae ATCC 43816) [µg/mL]	MIC (P. aeruginosa ATCC 27853) [µg/mL]	MIC (S. aureus ATCC 29213) [µg/mL]	MIC (A.b TNP 41704) [µg/mL]	MIC A.b TNP 41704 (A.b TNP 41704; Compounds + meropenem (1:1)) [µg/mL]	MIC A.b TNP 41704 (A.b TNP 41704; Compounds + sulbactam (1:1)) [µg/mL]	MIC (A.b TNP 41708) [µg/mL]	MIC A.b TNP 41708 (A.b TNP 41708; Compounds + meropenem (1:1)) [µg/mL]	MIC A.b TNP 41708 (A.b TNP 41708; Compounds + sulbactam (1:1)) [µg/mL]	MIC (A.b TNP 41709) [µg/mL]	MIC A.b TNP 41709 (A.b TNP 41709; Compounds + meropenem (1:1)) [µg/mL]	MIC A.b TNP 41709 (A.b TNP 41709; Compounds + sulbactam (1:1)) [µg/mL]	MIC A.b TNP 41704 (A.b TNP 41704; Compounds + Imipenem (1:1)) [µg/mL]	MIC A.b TNP 41708 (A.b TNP 41708; Compounds + Imipenem (1:1)) [µg/mL]	MIC A.b TNP 41709 (A.b TNP 41709; Compounds + Imipenem (1:1)) [µg/mL]
C[C@]1(/C=N/NC(=O)Cc2ccc(O)c(O)c2)[C@H](C(=O)O)N2C(=O)C[C@H]2S1(=O)=O [Example 20, (2S,3R,5R)-3-((E)-(2-(2-(3,4-dihydroxyphenyl)acetyl)hydrazono)methyl)-3-methyl-7-oxo-4-thia-1-azabicyclo[3.2.0]heptane-2-carboxylic acid 4,4-dioxide]	64 (≈ 156 µM)	> 128	> 128	> 128	> 128	32 (≈ 77.8 µM)	> 128	8	4	> 128	8	8	> 128	8	16			
C[C@]1(/C=N/NC(=O)c2cccc(O)c2O)[C@H](C(=O)O)N2C(=O)C[C@H]2S1(=O)=O [Example 28, (2S,3R,5R)-3-((E)-(2-(2,3-dihydroxybenzoyl)hydrazono)methyl)-3-methyl-7-oxo-4-thia-1-azabicyclo[3.2.0]heptane-2-carboxylic acid 4,4-dioxide]	> 128	> 128	> 128	> 128	> 128	> 128	> 128	8	4	> 128	8	8	> 128	4	8			
C[C@]1(/C=N/OCCNC(=O)c2ccc(O)c(O)c2Cl)[C@H](C(=O)O)N2C(=O)C[C@H]2S1(=O)=O [Example 118, (2S,3R,5R)-3-((E)-((2-(2-chloro-3,4-dihydroxybenzamido)ethoxy)imino)methyl)-3-methyl-7-oxo-4-thia-1-azabicyclo[3.2.0]heptane-2-carboxylic acid 4,4-dioxide]	> 128	> 128	> 128	> 128	> 128	> 128	> 128	128	16	> 128	>128	>128	> 128	>128	>128			
C[C@]1(CNc2ccc(O)c(O)c2)[C@H](C(=O)O)N2C(=O)C[C@H]2S1(=O)=O [Example 117, (2S,3S,5R)-3-(((3,4-dihydroxyphenyl)amino)methyl)-3-methyl-7-oxo-4-thia-1-azabicyclo[3.2.0]heptane-2-carboxylic acid 4,4-dioxide]	4 (≈ 11.2 µM)	> 128	> 128	> 128	> 128	> 128	64	8	4	128	8	4	64	8	4			
CN(NC(=O)c1ccc(O)c(O)c1Cl)C(=O)OC[C@@]1(C)[C@H](C(=O)O)N2C(=O)C[C@H]2S1(=O)=O [Example 80, (2S,3R,5R)-3-(((2-(2-chloro-3,4-dihydroxybenzoyl)-1-methylhydrazinecarbonyl)oxy)methyl)-3-methyl-7-oxo-4-thia-1-azabicyclo[3.2.0]heptane-2-carboxylic acid 4,4-dioxide]	0.25 (≈ 0.508 µM)	> 128	64 (≈ 130 µM)	16 (≈ 32.5 µM)	> 128	> 128	> 128	16	4	> 128	64	32	> 128	32	8			
C[C@H](NC(=O)c1ccc(O)c(O)c1Cl)C(=O)N/N=C/[C@@]1(C)[C@H](C(=O)O)N2C(=O)C[C@H]2S1(=O)=O [Example 62, (2S,3R,5R)-3-((E)-(2-((S)-2-(2-chloro-3,4-dihydroxybenzamido)propanoyl)hydrazono)methyl)-3-methyl-7-oxo-4-thia-1-azabicyclo[3.2.0]heptane-2-carboxylic acid 4,4-dioxide]	4 (≈ 7.95 µM)	> 128	> 128	> 128	> 128	128 (≈ 255 µM)	> 128	4	8	> 128	4	8	> 128	2	2			
C[C@]1(/C=N/NC(=O)C2CCN(C(=O)c3ccc(O)c(O)c3Cl)CC2)[C@H](C(=O)O)N2C(=O)C[C@H]2S1(=O)=O [Example 42, (2S,3R,5R)-3-((E)-(2-(1-(2-chloro-3,4-dihydroxybenzoyl)piperidine-4-carbonyl)hydrazono)methyl)-3-methyl-7-oxo-4-thia-1-azabicyclo[3.2.0]heptane-2-carboxylic acid 4,4-dioxide]	1 (≈ 1.84 µM)	> 128	> 128	> 128	> 128	128 (≈ 236 µM)	> 128	2	8	> 128	2	8	> 128	2	4			
C[C@]1(/C=N/NC(=O)[C@H](CO)NC(=O)c2ccc(O)c(O)c2Cl)[C@H](C(=O)O)N2C(=O)C[C@H]2S1(=O)=O [Example 43, (2S,3R,5R)-3-((E)-(2-(2-(2-chloro-3,4-dihydroxybenzamido)-3-hydroxypropanoyl)hydrazono)methyl)-3-methyl-7-oxo-4-thia-1-azabicyclo[3.2.0]heptane-2-carboxylic acid 4,4-dioxide]	8 (≈ 15.4 µM)		> 128	> 128	> 128	> 128	> 128	4	4	> 128	4	8	> 128	4	4	8	8	4
